Patent publication US9796711B2, “Substituted pyrazolo[3,4-b]pyridin-6-carboxylic acids and method of use” (AbbVie S.àr.l., priority 2015, dated 2017)

Tests used:
[1] = target: T1, ΔF508-CFTR (Homo sapiens, UniProt P13569, DEL508-508); experiment: CFTR cell surface levels using HRP-tagged ΔF508-CFTR expressing CFBE cells, in the presence of a co-corrector; assay type: cell-based; settings: HRP-tagged ΔF508-CFTR expressing CFBE cells, in the presence of 3 μM co-corrector; for EC50: read-out: EC50
T1 construct: host or cells: CFBE41o-, doxycycline-inducible
T1 sequence (P13569 with tags, fused parts or gaps DEL508-508): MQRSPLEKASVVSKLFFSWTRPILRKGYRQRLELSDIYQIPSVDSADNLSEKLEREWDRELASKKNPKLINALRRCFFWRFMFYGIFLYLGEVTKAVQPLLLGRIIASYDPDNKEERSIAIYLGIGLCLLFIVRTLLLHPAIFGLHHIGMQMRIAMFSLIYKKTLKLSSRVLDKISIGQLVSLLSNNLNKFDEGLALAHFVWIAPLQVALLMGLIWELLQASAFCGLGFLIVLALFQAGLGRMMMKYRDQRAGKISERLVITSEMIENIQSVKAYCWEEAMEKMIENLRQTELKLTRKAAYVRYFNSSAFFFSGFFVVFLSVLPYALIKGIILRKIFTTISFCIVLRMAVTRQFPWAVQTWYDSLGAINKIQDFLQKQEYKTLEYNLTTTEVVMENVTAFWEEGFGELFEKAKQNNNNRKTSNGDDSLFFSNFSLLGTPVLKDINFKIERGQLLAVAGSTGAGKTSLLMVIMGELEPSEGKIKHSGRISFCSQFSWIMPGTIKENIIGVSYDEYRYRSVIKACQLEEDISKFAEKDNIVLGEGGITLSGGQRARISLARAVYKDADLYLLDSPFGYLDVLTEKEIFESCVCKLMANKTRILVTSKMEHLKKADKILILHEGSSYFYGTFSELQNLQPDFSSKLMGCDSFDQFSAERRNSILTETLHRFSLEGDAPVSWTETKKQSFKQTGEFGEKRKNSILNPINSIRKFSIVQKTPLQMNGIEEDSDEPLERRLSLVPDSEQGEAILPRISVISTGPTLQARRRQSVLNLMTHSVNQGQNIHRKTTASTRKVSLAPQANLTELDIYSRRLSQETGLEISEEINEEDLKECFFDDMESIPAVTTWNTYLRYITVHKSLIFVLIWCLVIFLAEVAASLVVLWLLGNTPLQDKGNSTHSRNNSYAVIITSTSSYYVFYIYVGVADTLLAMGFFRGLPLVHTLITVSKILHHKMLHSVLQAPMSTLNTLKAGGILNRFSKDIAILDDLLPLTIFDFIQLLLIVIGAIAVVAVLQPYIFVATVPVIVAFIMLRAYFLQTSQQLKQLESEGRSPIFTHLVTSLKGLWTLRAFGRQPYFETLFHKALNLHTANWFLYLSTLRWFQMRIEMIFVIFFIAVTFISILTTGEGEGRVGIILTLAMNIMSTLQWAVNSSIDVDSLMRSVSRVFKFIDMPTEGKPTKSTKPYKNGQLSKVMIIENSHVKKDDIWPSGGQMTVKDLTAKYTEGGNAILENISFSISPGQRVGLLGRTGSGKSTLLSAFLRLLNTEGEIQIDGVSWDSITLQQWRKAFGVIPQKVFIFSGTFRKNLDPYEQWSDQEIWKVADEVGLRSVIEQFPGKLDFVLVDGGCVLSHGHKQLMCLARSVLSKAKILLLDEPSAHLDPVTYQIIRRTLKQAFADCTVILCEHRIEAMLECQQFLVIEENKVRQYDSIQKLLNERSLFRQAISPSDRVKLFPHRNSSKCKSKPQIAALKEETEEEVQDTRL
Procedure, shortened: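 Cells were seeded with 0.5 μg/mL doxycycline and held 68 h at 37 °C. Test compounds plus 3 μM co-corrector (final 0.1% DMSO) were then added for 20 h at 33 °C. Washed cells received HRP substrate, and luminescence was normalized between DMSO and 3 μM co-corrector controls.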

[2] = target: T1, ΔF508-CFTR; experiment: CFTR cell surface levels using HRP-tagged ΔF508-CFTR expressing CFBE cells, intrinsic corrector capacity; assay type: cell-based; settings: for EC50: read-out: EC50
Procedure, shortened: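 Here the cells express ΔF508-CFTR with horseradish peroxidase inserted in extracellular loop 4, so only rescued channel at the surface gives luminescent signal. Compounds act on their own, 20 h at the reduced temperature of 33 °C; values are percent activity relative to DMSO and a 3 μM corrector.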

[3] = HRP-tagged ΔF508-CFTR expressing CFBE cells, intrinsic corrector capacity (no co-corrector), 33° C., 20 hours
[4] = HRP-tagged ΔF508-CFTR CFBE41o- cells, compounds alone (intrinsic corrector capacity), 20 hours at 33° C., positive control 3 μM corrector
[5] = HRP-tagged ΔF508-CFTR CFBE41o- cells, compounds alone (intrinsic corrector capacity), 20 hours at 33° C.

Row | SMILES | % Activation [1] [%] | EC50 [1] [nM] | % Activation [2, 3] [%] | EC50 [2, 3] [nM] | % Activation [2, 4] [%] | EC50 [2, 5] [nM]
1 | CN1C(=O)CN(CC2CCN(c3cc(C(=O)O)nc4c3c(C3CCC3)nn4-c3ccccc3)CC2)CC12COC2 [compound 845, 3-cyclobutyl-4-{4-[(5-methyl-6-oxo-2-oxa-5,8-diazaspiro[3.5]nonan-8-yl)methyl]piperidin-1-yl}-1-phenyl-1H-pyrazolo[3,4-b]pyridine-6-carboxylic acid] | 499.6 | 1080 | 273.7 | 1470 |  | 
2 | O=C(O)c1cc(N2CCC(N3CCOCC3)CC2)c2c(C3CCC3)nn(-c3ccc4c(c3)OC(F)(F)O4)c2n1 [compound 906, 3-cyclobutyl-1-(2,2-difluoro-2H-1,3-benzodioxo1-5-yl)-4-[4-(morpholin-4-yl)piperidin-1-yl]-1H-pyrazolo[3,4-b]pyridine-6-carboxylic acid] | 485.34 | 72.8 | 276.92 | 146 |  | 
3 | CC(C)c1nn(C2CCCCC2)c2nc(C(=O)O)cc(-c3cn[nH]c3)c12 [compound 363, 1-cyclohexyl-3-(propan-2-yl)-4-(1H-pyrazol-4-yl)-1H-pyrazolo[3,4-b]pyridine-6-carboxylic acid] | 187.2 | 2330 |  |  | 56.625 | 2470
4 | O=C(O)c1cc(N2CCCC3(CC3)C2)c2c(C3CCC3)nn(-c3ccccc3)c2n1 [compound 419, 4-(5-azaspiro[2.5]octan-5-yl)-3-cyclobutyl-1-phenyl-1H-pyrazolo[3,4-b]pyridine-6-carboxylic acid] | 293.9 | 509 | 136 | 983 |  | 
5 | Cc1nn(-c2ccccc2)c2nc(C(=O)O)cc(-c3ccc(N(C)C4CCC4)cc3)c12 [compound 115, 4-{4-[cyclobutyl(methyl)amino]phenyl}-3-methyl-1-phenyl-1H-pyrazolo[3,4-b]pyridine-6-carboxylic acid] | 354 | 1280 |  |  | 152.3 | 1870
6 | O=C(O)c1cc(N2CCC(N3CCOCC3)CC2)c2c(C3CCC3)nn(-c3ccc(C(F)(F)F)cc3)c2n1 [compound 823, 3-cyclobutyl-4-[4-(morpholin-4-yl)piperidin-1-yl]-1-[4-(trifluoromethyl)phenyl]-1H-pyrazolo[3,4-b]pyridine-6-carboxylic acid] | 375.2 | 147 | 188.7 | 258 |  | 
7 | O=C(O)c1cc(N2CCC(N3CCOCC3)CC2)c2c(C3CCC3)nn(-c3ccc4c(c3)CC4)c2n1 [compound 911, 1-(bicyclo[4.2.0]octa-1,3,5-trien-3-yl)-3-cyclobutyl-4-[4-(morpholin-4-yl)piperidin-1-yl]-1H-pyrazolo[3,4-b]pyridine-6-carboxylic acid] | 405.9 | 74 | 222.45 | 190 |  | 
8 | COCCN(C)c1ccc(-c2cc(C(=O)O)nc3c2c(C(C)C)nn3-c2cccc(N3CCCC3)c2)cn1 [compound 253, 4-{6-[(2-methoxyethyl)(methyl)amino]pyridin-3-yl}-3-(propan-2-yl)-1-[3-(pyrrolidin-1-yl)phenyl]-1H-pyrazolo[3,4-b]pyridine-6-carboxylic acid] | 568.13 | 425 |  |  | 375.87 | 656
9 | O=C1CC[C@H](Oc2cc(C(=O)O)nc3c2c(C2CCC2)nn3-c2ccccc2)CN1 [compound 619, 3-cyclobutyl-4-{[(3S)-6-oxopiperidin-3-yl]oxy}-1-phenyl-1H-pyrazolo[3,4-b]pyridine-6-carboxylic acid] | 134.1 | > 10000 | 7.484 | > 10000 |  | 
10 | CC(C)c1nn(C2CCCCC2)c2nc(C(=O)O)cc(-c3cnc(N(C)C)nc3)c12 [compound 62, 1-cyclohexyl-4-[2-(dimethylamino)pyrimidin-5-yl]-3-(propan-2-yl)-1H-pyrazolo[3,4-b]pyridine-6-carboxylic acid] | 349.9 | 1690 |  |  | 159.65 | 2630
11 | O=C(O)c1cc(N2CC[C@@H](F)C2)c2c(C3CCC3)nn(-c3ccccc3)c2n1 [compound 541, 3-cyclobutyl-4-[(3R)-3-fluoropyrrolidin-1-yl]-1-phenyl-1H-pyrazolo[3,4-b]pyridine-6-carboxylic acid] | 287.85 | 799 | 120.7 | 988 |  | 
12 | O=C(O)c1cc(N2CC[C@H](F)[C@H](O)C2)c2c(C3CCC3)nn(-c3ccccc3)c2n1 [compound 535, 3-cyclobutyl-4-[(3R,4S)-4-fluoro-3-hydroxypiperidin-1-yl]-1-phenyl-1H-pyrazolo[3,4-b]pyridine-6-carboxylic acid] | 205.9 | 1410 | 56.68 | 2850 |  | 
13 | CC(C)c1nn(C2CCCCC2)c2nc(C(=O)O)cc(N3CCCCC3)c12 [compound 265, 1-cyclohexyl-4-(piperidin-1-yl)-3-(propan-2-yl)-1H-pyrazolo[3,4-b]pyridine-6-carboxylic acid] | 397.8 | 1390 |  |  | 132.05 | 1240
14 | O=C(O)c1cc(N2CCC(N3CCN(C4COC4)CC3)CC2)c2c(C3CCC3)nn(-c3ccc(F)cc3)c2n1 [compound 899, 3-cyclobutyl-1-(4-fluorophenyl)-4-{4-[4-(oxetan-3-yl)piperazin-1-yl]piperidin-1-yl}-1H-pyrazolo[3,4-b]pyridine-6-carboxylic acid] | 351.9 | 309 | 210.9 | 3100 |  | 
15 | CC(C)c1nn(-c2ccc(F)cc2)c2nc(C(=O)O)cc(N3CC(N4CCCC4)C3)c12 [compound 794, 1-(4-fluorophenyl)-3-(propan-2-yl)-4-[3-(pyrrolidin-1-yl)azetidin-1-yl]-1H-pyrazolo[3,4-b]pyridine-6-carboxylic acid] | 168.7 | 788 | 58.82 | 1670 |  | 
16 | O=C(O)c1cc(OC2CCC(F)(F)CC2)c2c(C3CCC3)nn(-c3ccccc3)c2n1 [compound 578, 3-cyclobutyl-4-[(4,4-difluorocyclohexyl)oxy]-1-phenyl-1H-pyrazolo[3,4-b]pyridine-6-carboxylic acid] | 301.55 | 224 | 118.2 | 334 |  | 
17 | CC(C)c1nn(C2CCCCC2)c2nc(C(=O)O)cc(C3=CC(C)(C)OC(C)(C)C3)c12 [compound 402, 1-cyclohexyl-3-(propan-2-yl)-4-(2,2,6,6-tetramethyl-3,6-dihydro-2H-pyran-4-yl)-1H-pyrazolo[3,4-b]pyridine-6-carboxylic acid] | 214.5 | 1110 | 43.815 | 715 |  | 
18 | CC(C)c1nn(-c2ccc(F)cc2)c2nc(C(=O)O)cc(N3CCN(CCC(=O)N4CCCN(C)CC4)CC3)c12 [compound 779, 1-(4-fluorophenyl)-4-{4-[3-(4-methyl-1,4-diazepan-1-yl)-3-oxopropyl]piperazin-1-yl}-3-(propan-2-yl)-1H-pyrazolo[3,4-b]pyridine-6-carboxylic acid] | 121.2 | 5000 | 6.923 | 5000 |  | 
19 | Cc1nn(-c2ccccc2)c2nc(C(=O)O)cc(N3CCC(NS(C)(=O)=O)CC3)c12 [compound 303, 4-{4-[(methanesulfonyl)amino]piperidin-1-yl}-3-methyl-1-phenyl-1H-pyrazolo[3,4-b]pyridine-6-carboxylic acid] | 123.5 | 7500 |  |  | 10.878 | 7500
20 | CN(C[C@H]1CCN(c2cc(C(=O)O)nc3c2c(C2CCC2)nn3-c2ccccc2)C1)C(=O)OC(C)(C)C [compound 675, 4-[(3S)-3-{[(tert-butoxycarbonyl)(methyl)amino]methyl}pyrrolidin-1-yl]-3-cyclobutyl-1-phenyl-1H-pyrazolo[3,4-b]pyridine-6-carboxylic acid] | 303.65 | 1050 | 118.8 | 659 |  | 
21 | CC(=O)N1CCC(c2cc(C(=O)O)nc3c2c(C)nn3-c2ccccc2)CC1 [compound 138, 4-(1-acetylpiperidin-4-yl)-3-methyl-1-phenyl-1H-pyrazolo[3,4-b]pyridine-6-carboxylic acid] | 133.3 | > 10000 |  |  | 12.11 | > 10000
22 | N#CC1CCN(c2ccc(-c3cc(C(=O)O)nc4c3c([C@H]3C[C@H](F)C3)nn4-c3ccccc3)cn2)CC1 [compound 433, 4-[6-(4-cyanopiperidin-1-yl)pyridin-3-yl]-3-(trans-3-fluorocyclobutyl)-1-phenyl-1H-pyrazolo[3,4-b]pyridine-6-carboxylic acid] | 369.1 | 367 | 185.45 | 629 |  | 
